Laboratory results reported in patent US10696707B2, “Polyene macrolide derivative” (Shionogi & Co., Ltd., priority 2014, dated 2020).

test system: red blood cells (5% RBC suspension); test: Test Example 2-1: in vitro hemolytic activity test (upper limit 50, 80, 100 or 200 μmol/L); format: cell-based; settings: Erythrocyte, 1 h; hemolysis method 50 (upper concentration 50 μmol/L); 5% RBC suspension, 37° C., one hour; read-out: hemolysis IC50
Experimental: Nephrotoxic potentials of the compounds of the present invention except the compounds whose X is —N(R^F)—CO—X^1 and X^1 is the group represented by formula (III) and T is —N(R^a5)— were investigated by in vitro hemolytic activity test under the condition, in that, the upper limit was 50 μmol/L, 80 μmol/L, 100 μmol/L, or 200 μmol/L as the required concentration to 50% of hemolysis (IC50).
Defibrinated sterile blood was centrifuged at 700×g for 3 minutes and, and the supernatant was removed for 100% of red blood cells. After the cleaning with physiological saline, the washed blood cells was suspended in the medium (Earle's balanced salt sodium, bicarbonate, 0.1 g/L L-glutamine without phenol red), and was diluted by 5% (5% RBC suspension).
The washed blood was diluted by 5% in water for injection (solution of complete hemolysis), and was used as the indication of optical density for complete hemolysis.
The compounds of the present invention solution in DMSO (several and doubling dilutions starting from 2.5 mmol/L, 4 mmol/L, 5 mmol/L, or 10 mmol/L), DMSO as the negative control, and Amphotericin B as the positive control were used, and each 5 μL of these was added in to a well of V-form 96 well type microplate.
Finally, the maximum concentration of the compounds of the present invention solution in DMSO was 50 μmol/L, 80 μmol/L, 100 μmol/L, or 200 μmol/L by adding 245 μL of the medium or 5% RBC suspension into the well.
Two hundred fifty μL of the solution of complete hemolysis was added into another well and the microplate was incubated at 37° C. in 5% of CO2 concentration for an hour.
After the incubation, each 100 μL of supernatants in wells was collected by centrifugation of the microplate at 300×g for 5 minutes and was located on a well of flat-form 96 well type microplate. An absorbance of each supernatant was measured at wavelength of 540 nm.
Percent hemolysis was calculated by using the followed equation. The required concentration to 50% of hemolysis (IC50) was calculated based on the percent hemolysis. […] Hemolysis (%)=(CR−VM)×100÷(VL−VR) Where:
CR: Absorbance of 5% RBC suspension incubated with the compounds of the present invention solution in DMSO
VM: Absorbance of medium incubated with the compounds of the present invention solution in DMSO
VL: Absorbance of solution of complete hemolysis
VR: Absorbance of 5% RBC suspension incubated with DMSO
The “hemolysis method” in the table means any tests the upper concentration of above IC50 are 50 μmol/L, 80 μmol/L, 100 μmol/L or 200 μmol/L. The “>50”, “>80”, “>100” or “>200” in the table means above IC50 value exceeded the each upper concentration.

| Structure (SMILES) | IC50 |
| --- | --- |
| C[C@@H]1[C@H](O)[C@@H](C)/C=C/C=C/C=C/C=C/C=C/C=C/C=C/[C@H](O[C@@H]2O[C@H](C)[C@@H](O)[C@H](N)[C@@H]2O)C[C@@H]2O[C@](O)(C[C@@H](O)C[C@@H](O)[C@H](O)CC[C@@H](O)C[C@@H](O)CC(=O)O[C@H]1C)C[C@H](O)[C@H]2NC(=O)NC1CC1 [I-41] | > 50 µM |
| C[C@@H]1[C@H](O)[C@@H](C)/C=C/C=C/C=C/C=C/C=C/C=C/C=C/[C@H](O[C@@H]2O[C@H](C)[C@@H](O)[C@H](N)[C@@H]2O)C[C@@H]2O[C@](O)(C[C@@H](O)C[C@@H](O)[C@H](O)CC[C@@H](O)C[C@@H](O)CC(=O)O[C@H]1C)C[C@H](O)[C@H]2c1nc(-c2ccncc2)no1 [I-392] | > 50 µM |
| C[C@@H]1[C@H](O)[C@@H](C)/C=C/C=C/C=C/C=C/C=C/C=C/C=C/[C@H](O[C@@H]2O[C@H](C)[C@@H](O)[C@H](NC[C@@]3(O)OC[C@@H](O)[C@H](O)[C@@H]3O)[C@@H]2O)C[C@@H]2O[C@](O)(C[C@@H](O)C[C@@H](O)[C@H](O)CC[C@@H](O)C[C@@H](O)CC(=O)O[C@H]1C)C[C@H](O)[C@H]2NC(=O)NC[C@H](O)CO [I-368] | > 50 µM |

same assay, conditions: hemolysis method 50 (upper concentration 50 μmol/L); 5% RBC suspension, 37° C., one hour; read-out: hemolysis IC50

| Structure (SMILES) | IC50 |
| --- | --- |
| C[C@@H]1[C@H](O)[C@@H](C)/C=C/C=C/C=C/C=C/C=C/C=C/C=C/[C@H](O[C@@H]2O[C@H](C)[C@@H](O)[C@H](N)[C@@H]2O)C[C@@H]2O[C@](O)(C[C@@H](O)C[C@@H](O)[C@H](O)CC[C@@H](O)C[C@@H](O)CC(=O)O[C@H]1C)C[C@H](O)[C@H]2NC(=O)NCCNC(N)=O [I-93] | > 50 µM |
| CON(C)C(=O)N[C@H]1[C@@H]2C[C@@H](O[C@@H]3O[C@H](C)[C@@H](O)[C@H](N)[C@@H]3O)/C=C/C=C/C=C/C=C/C=C/C=C/C=C/[C@H](C)[C@@H](O)[C@@H](C)[C@H](C)OC(=O)C[C@H](O)C[C@H](O)CC[C@@H](O)[C@H](O)C[C@H](O)C[C@](O)(C[C@@H]1O)O2 [I-282] | > 50 µM |
| C[C@@H]1[C@H](O)[C@@H](C)/C=C/C=C/C=C/C=C/C=C/C=C/C=C/[C@H](O[C@@H]2O[C@H](C)[C@@H](O)[C@H](N)[C@@H]2O)C[C@@H]2O[C@](O)(C[C@@H](O)C[C@@H](O)[C@H](O)CC[C@@H](O)C[C@@H](O)CC(=O)O[C@H]1C)C[C@H](O)[C@H]2NC(=O)NC(CNS(N)(=O)=O)CN(C)C (stereo partly shown) [I-234] | > 50 µM |
| C[C@@H]1[C@H](O)[C@@H](C)/C=C/C=C/C=C/C=C/C=C/C=C/C=C/[C@H](O[C@@H]2O[C@H](C)[C@@H](O)[C@H](N)[C@@H]2O)C[C@@H]2O[C@](O)(C[C@@H](O)C[C@@H](O)[C@H](O)CC[C@@H](O)C[C@@H](O)CC(=O)O[C@H]1C)C[C@H](O)[C@H]2NC(=O)NCCOCCOCCO [I-11] | > 50 µM |
| C[C@@H]1[C@H](O)[C@@H](C)/C=C/C=C/C=C/C=C/C=C/C=C/C=C/[C@H](O[C@@H]2O[C@H](C)[C@@H](O)[C@H](N)[C@@H]2O)C[C@@H]2O[C@](O)(C[C@@H](O)C[C@@H](O)[C@H](O)CC[C@@H](O)C[C@@H](O)CC(=O)O[C@H]1C)C[C@H](O)[C@H]2NC(=O)NC(CCO)C(=O)O (stereo partly shown) [I-249] | > 50 µM |
| C[C@@H]1[C@H](O)[C@@H](C)/C=C/C=C/C=C/C=C/C=C/C=C/C=C/[C@H](O[C@@H]2O[C@H](C)[C@@H](O)[C@H](N)[C@@H]2O)C[C@@H]2O[C@](O)(C[C@@H](O)C[C@@H](O)[C@H](O)CC[C@@H](O)C[C@@H](O)CC(=O)O[C@H]1C)C[C@H](O)[C@H]2NC(=O)NC(C(=O)O)[C@H](C)O (stereo partly shown) [I-291] | > 50 µM |
| C[C@@H]1[C@H](O)[C@@H](C)/C=C/C=C/C=C/C=C/C=C/C=C/C=C/[C@H](O[C@@H]2O[C@H](C)[C@@H](O)[C@H](N)[C@@H]2O)C[C@@H]2O[C@](O)(C[C@@H](O)C[C@@H](O)[C@H](O)CC[C@@H](O)C[C@@H](O)CC(=O)O[C@H]1C)C[C@H](O)[C@H]2NC(=O)NCCOCCS(C)(=O)=O [I-241] | > 50 µM |
| C[C@@H]1[C@H](O)[C@@H](C)/C=C/C=C/C=C/C=C/C=C/C=C/C=C/[C@H](O[C@@H]2O[C@H](C)[C@@H](O)[C@H](N)[C@@H]2O)C[C@@H]2O[C@](O)(C[C@@H](O)C[C@@H](O)[C@H](O)CC[C@@H](O)C[C@@H](O)CC(=O)O[C@H]1C)C[C@H](O)[C@H]2NC(=O)NOCC(CO)CO [I-255] | > 50 µM |
| C[C@@H]1[C@H](O)[C@@H](C)/C=C/C=C/C=C/C=C/C=C/C=C/C=C/[C@H](O[C@@H]2O[C@H](C)[C@@H](O)[C@H](N)[C@@H]2O)C[C@@H]2O[C@](O)(C[C@@H](O)C[C@@H](O)[C@H](O)CC[C@@H](O)C[C@@H](O)CC(=O)O[C@H]1C)C[C@H](O)[C@H]2NC(=O)N1CC(NC[C@H](O)CO)C1 [I-226] | > 50 µM |
| COC(=O)CCCNC(=O)N[C@H]1[C@@H]2C[C@@H](O[C@@H]3O[C@H](C)[C@@H](O)[C@H](N)[C@@H]3O)/C=C/C=C/C=C/C=C/C=C/C=C/C=C/[C@H](C)[C@@H](O)[C@@H](C)[C@H](C)OC(=O)C[C@H](O)C[C@H](O)CC[C@@H](O)[C@H](O)C[C@H](O)C[C@](O)(C[C@@H]1O)O2 [I-55] | > 50 µM |

same assay, conditions: hemolysis method 80 (upper concentration 80 μmol/L); 5% RBC suspension, 37° C., one hour; read-out: hemolysis IC50

| Structure (SMILES) | IC50 |
| --- | --- |
| C[C@@H]1[C@H](O)[C@@H](C)/C=C/C=C/C=C/C=C/C=C/C=C/C=C/[C@H](O[C@@H]2O[C@H](C)[C@@H](O)[C@H](N)[C@@H]2O)C[C@@H]2O[C@](O)(C[C@@H](O)C[C@@H](O)[C@H](O)CC[C@@H](O)C[C@@H](O)CC(=O)O[C@H]1C)C[C@H](O)[C@H]2NC(=O)N1CCC(N(C)C)CC1 [I-54] | > 80 µM |
| C[C@@H]1[C@H](O)[C@@H](C)/C=C/C=C/C=C/C=C/C=C/C=C/C=C/[C@H](O[C@@H]2O[C@H](C)[C@@H](O)[C@H](N)[C@@H]2O)C[C@@H]2O[C@](O)(C[C@@H](O)C[C@@H](O)[C@H](O)CC[C@@H](O)C[C@@H](O)CC(=O)O[C@H]1C)C[C@H](O)[C@H]2NC(=O)N1CCN(c2ccccc2)CC1 [I-17] | > 80 µM |
| C[C@@H]1[C@H](O)[C@@H](C)/C=C/C=C/C=C/C=C/C=C/C=C/C=C/[C@H](O[C@@H]2O[C@H](C)[C@@H](O)[C@H](N)[C@@H]2O)C[C@@H]2O[C@](O)(C[C@@H](O)C[C@@H](O)[C@H](O)CC[C@@H](O)C[C@@H](O)CC(=O)O[C@H]1C)C[C@H](O)[C@H]2NC(=O)NC1CCN(C)CC1 [I-48] | > 80 µM |
| C[C@@H]1[C@H](O)[C@@H](C)/C=C/C=C/C=C/C=C/C=C/C=C/C=C/[C@H](O[C@@H]2O[C@H](C)[C@@H](O)[C@H](N)[C@@H]2O)C[C@@H]2O[C@](O)(C[C@@H](O)C[C@@H](O)[C@H](O)CC[C@@H](O)C[C@@H](O)CC(=O)O[C@H]1C)C[C@H](O)[C@H]2NC(=O)NCCc1ccccn1 [I-15] | > 80 µM |
| C[C@@H]1[C@H](O)[C@@H](C)/C=C/C=C/C=C/C=C/C=C/C=C/C=C/[C@H](O[C@@H]2O[C@H](C)[C@@H](O)[C@H](N)[C@@H]2O)C[C@@H]2O[C@](O)(C[C@@H](O)C[C@@H](O)[C@H](O)CC[C@@H](O)C[C@@H](O)CC(=O)O[C@H]1C)C[C@H](O)[C@H]2NC(=O)NCC[N+](C)(C)C [I-53] | > 80 µM |
| C[C@@H]1[C@H](O)[C@@H](C)/C=C/C=C/C=C/C=C/C=C/C=C/C=C/[C@H](O[C@@H]2O[C@H](C)[C@@H](O)[C@H](N)[C@@H]2O)C[C@@H]2O[C@](O)(C[C@@H](O)C[C@@H](O)[C@H](O)CC[C@@H](O)C[C@@H](O)CC(=O)O[C@H]1C)C[C@H](O)[C@H]2NC(=O)N1CCOCCOCCOCCOCCOCC1 [I-18] | > 80 µM |

same assay, conditions: hemolysis method 100 (upper concentration 100 μmol/L); 5% RBC suspension, 37° C., one hour; read-out: hemolysis IC50

| Structure (SMILES) | IC50 |
| --- | --- |
| CNC(=O)N[C@H]1[C@@H]2C[C@@H](O[C@@H]3O[C@H](C)[C@@H](O)[C@H](NCc4ccc(N(C)C)cc4)[C@@H]3O)/C=C/C=C/C=C/C=C/C=C/C=C/C=C/[C@H](C)[C@@H](O)[C@@H](C)[C@H](C)OC(=O)C[C@H](O)C[C@H](O)CC[C@@H](O)[C@H](O)C[C@H](O)C[C@](O)(C[C@@H]1O)O2 [I-314] | > 80 µM |
| C[C@@H]1[C@H](O)[C@@H](C)/C=C/C=C/C=C/C=C/C=C/C=C/C=C/[C@H](O[C@@H]2O[C@H](C)[C@@H](O)[C@H](N)[C@@H]2O)C[C@@H]2O[C@](O)(C[C@@H](O)C[C@@H](O)[C@H](O)CC[C@@H](O)C[C@@H](O)CC(=O)O[C@H]1C)C[C@H](O)[C@H]2NC(=O)N(N)CCO [I-212] | > 100 µM |
| C[C@@H]1[C@H](O)[C@@H](C)/C=C/C=C/C=C/C=C/C=C/C=C/C=C/[C@H](O[C@@H]2O[C@H](C)[C@@H](O)[C@H](N)[C@@H]2O)C[C@@H]2O[C@](O)(C[C@@H](O)C[C@@H](O)[C@H](O)CC[C@@H](O)C[C@@H](O)CC(=O)O[C@H]1C)C[C@H](O)[C@H]2NC(=O)NC(C)(CO)CO [I-213] | > 100 µM |
